From US20090317373A1, “Inhibition of the Anti-FVIII Immune Response” (Institut National De La Sante Et De La Recherche Medicale, priority 2005, published 2009)

How the values were obtained:
[1] = target: T1, binding of CTLD(4-7)-Fc to FVIII-BDD (UniProt P00451+Q61830, DEL763-1656); test: ELISA: influence of VWF on binding of CTLD(4-7)-Fc to immobilized FVIII-BDD; conditions: soluble VWF in a VWF:FVIII ratio excess; FIG. 9
T1 construct: CTLD(4-7)-Fc a gift of Dr L. Martinez-Pomares
T1 sequence (P00451 with tags, fused parts or gaps DEL763-1656 limits assumed): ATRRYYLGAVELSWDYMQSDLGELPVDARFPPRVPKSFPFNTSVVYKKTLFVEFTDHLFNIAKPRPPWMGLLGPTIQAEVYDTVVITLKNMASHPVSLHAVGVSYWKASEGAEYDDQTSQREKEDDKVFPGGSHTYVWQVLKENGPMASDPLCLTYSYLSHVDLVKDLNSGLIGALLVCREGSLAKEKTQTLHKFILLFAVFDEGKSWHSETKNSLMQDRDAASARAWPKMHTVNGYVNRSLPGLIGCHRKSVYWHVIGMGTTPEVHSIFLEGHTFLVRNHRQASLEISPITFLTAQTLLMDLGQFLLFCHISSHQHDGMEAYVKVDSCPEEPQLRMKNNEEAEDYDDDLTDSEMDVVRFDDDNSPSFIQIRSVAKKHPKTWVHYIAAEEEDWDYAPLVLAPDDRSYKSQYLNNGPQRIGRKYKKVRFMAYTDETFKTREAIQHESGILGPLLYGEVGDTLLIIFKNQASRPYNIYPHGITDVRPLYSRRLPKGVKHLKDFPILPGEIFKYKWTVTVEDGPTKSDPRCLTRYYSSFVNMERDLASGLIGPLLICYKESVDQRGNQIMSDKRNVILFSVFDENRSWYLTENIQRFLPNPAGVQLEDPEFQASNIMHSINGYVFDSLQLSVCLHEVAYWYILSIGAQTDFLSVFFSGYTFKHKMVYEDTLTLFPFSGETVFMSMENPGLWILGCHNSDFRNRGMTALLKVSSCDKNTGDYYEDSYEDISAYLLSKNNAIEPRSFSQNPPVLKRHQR
T1 sequence (P00451 1668-2351 limits assumed): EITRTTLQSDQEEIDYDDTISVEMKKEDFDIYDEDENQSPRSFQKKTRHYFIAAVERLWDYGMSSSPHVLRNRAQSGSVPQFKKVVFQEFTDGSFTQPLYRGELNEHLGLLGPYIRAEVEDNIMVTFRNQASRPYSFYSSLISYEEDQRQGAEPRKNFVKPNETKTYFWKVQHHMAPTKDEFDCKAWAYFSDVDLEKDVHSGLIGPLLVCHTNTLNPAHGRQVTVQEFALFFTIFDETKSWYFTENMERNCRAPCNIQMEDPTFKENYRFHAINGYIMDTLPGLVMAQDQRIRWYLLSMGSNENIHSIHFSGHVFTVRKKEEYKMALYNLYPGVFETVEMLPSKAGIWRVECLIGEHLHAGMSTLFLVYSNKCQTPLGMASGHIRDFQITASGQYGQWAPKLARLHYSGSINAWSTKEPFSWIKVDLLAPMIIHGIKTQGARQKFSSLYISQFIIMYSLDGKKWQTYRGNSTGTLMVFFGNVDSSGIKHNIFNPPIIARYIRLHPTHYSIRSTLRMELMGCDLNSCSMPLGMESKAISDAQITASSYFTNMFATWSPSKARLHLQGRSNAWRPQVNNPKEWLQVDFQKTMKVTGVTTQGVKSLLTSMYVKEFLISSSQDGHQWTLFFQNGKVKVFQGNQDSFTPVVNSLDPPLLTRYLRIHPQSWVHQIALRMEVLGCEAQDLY
T1 sequence (Q61830 20-1456): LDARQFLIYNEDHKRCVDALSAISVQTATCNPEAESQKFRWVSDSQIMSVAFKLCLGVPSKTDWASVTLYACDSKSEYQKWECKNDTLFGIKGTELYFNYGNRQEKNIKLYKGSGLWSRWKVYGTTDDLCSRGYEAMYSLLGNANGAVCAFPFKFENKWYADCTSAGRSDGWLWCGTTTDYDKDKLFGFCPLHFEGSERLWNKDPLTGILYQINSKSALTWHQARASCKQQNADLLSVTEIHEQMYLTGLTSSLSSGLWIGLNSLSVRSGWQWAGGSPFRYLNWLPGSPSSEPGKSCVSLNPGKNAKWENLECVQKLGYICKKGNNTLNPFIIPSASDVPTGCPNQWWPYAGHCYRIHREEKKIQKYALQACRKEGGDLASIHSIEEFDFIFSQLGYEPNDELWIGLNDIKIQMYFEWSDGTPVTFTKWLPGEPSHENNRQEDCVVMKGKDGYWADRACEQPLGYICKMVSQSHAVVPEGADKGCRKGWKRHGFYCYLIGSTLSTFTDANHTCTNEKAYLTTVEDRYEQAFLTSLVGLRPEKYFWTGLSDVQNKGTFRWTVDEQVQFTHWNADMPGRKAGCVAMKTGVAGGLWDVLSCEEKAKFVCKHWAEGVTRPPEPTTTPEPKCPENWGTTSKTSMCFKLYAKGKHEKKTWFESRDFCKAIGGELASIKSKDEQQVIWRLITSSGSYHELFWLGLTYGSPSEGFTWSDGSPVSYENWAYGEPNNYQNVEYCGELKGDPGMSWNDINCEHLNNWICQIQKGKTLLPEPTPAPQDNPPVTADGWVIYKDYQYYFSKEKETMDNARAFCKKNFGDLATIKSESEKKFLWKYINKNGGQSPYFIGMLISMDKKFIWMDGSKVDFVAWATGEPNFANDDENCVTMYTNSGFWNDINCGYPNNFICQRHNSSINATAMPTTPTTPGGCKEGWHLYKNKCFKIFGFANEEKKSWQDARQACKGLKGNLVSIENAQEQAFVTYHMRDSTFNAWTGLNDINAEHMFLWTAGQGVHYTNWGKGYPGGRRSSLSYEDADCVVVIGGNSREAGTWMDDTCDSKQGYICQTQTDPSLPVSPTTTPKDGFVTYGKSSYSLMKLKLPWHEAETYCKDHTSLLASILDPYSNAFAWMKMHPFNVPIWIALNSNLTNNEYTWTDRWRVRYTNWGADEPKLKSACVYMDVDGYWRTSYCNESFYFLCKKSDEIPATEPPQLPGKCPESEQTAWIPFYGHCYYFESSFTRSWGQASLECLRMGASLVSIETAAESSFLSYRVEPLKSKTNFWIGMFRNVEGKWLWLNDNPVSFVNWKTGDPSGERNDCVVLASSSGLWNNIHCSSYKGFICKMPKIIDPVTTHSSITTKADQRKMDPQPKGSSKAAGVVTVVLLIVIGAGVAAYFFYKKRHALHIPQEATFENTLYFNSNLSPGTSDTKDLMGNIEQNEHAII
Protocol: ELISA plates are coated with FVIII-BDD (5.56 μg/ml, 0.033 μM). VWF (0 to 1 μM) is incubated with 10 μg/ml of the construct CTLD(4-7)-Fc for 30 min at room temperature and added to immobilized FVIII-BDD.

[2] = test system: human DCs derived from monocytes; test: In vitro internalization of fluorescent ligands by human DCs derived from monocytes (flow cytometry); type: cell-based
Protocol: DCs were prepared from monocytes as described previously (29) with a change in the culture media. Briefly, mononucleated cells were isolated from heparinized leukoplatelet layers (“buffy coats”) from healthy adult donors by adhesion on plastic cell culture dishes in RPMI 1640 medium supplemented with 10% human AB serum, glutamine and antibiotics for 60 minutes. Non-adhering cells were removed by 3 gentle washings with the medium. The adhering monocytes were cultured in X-VIVO 15 medium (Cambrex Bio Sciences, Paris, France) supplemented with 1% human AB serum and antibiotics and in the presence of 500 IU/ml of recombinant human interleukin-4 (rhIL-4), R&D Systems (Lille, France) and 1,000 IU/ml of recombinant human granulocyte macrophage colony-stimulating factor (rhGM-CSF), Immunotools (Friesoythe, Germany). Half of the medium, comprising all the supplements, was replaced every two days. After culture for 5 days, the non-adhering cells and those with little adhesion, corresponding to the fraction enriched in DC, were harvested, washed and used for subsequent experiments.
Whole recombinant human FVIII (1,000 IU, Kogenate, Bayer) or B domain-deleted recombinant human FVIII (FVIII-BDD) (1,000 IU, Refacto, Wyeth) were solubilized in water and dialyzed against bicarbonate buffer (pH 9.2) containing CaCl2, 5 mM at 4° C., followed by coupling to fluorescein 5-isothiocyanate (isomer I, Sigma-Aldrich, Saint Quentin Fallavier, France) for 7-8 hours at 4° C. The labelled FVIII was then dialyzed against RPMI 1640 medium to remove non-coupled FITC. The FVIII-FITC was quantified by the Bradford method using bovine serum albumin as the standard.
The DCs obtained in Example 1 (0.4×10^5 cells/well of a 96-well plate with 100 μl/well) were incubated with various doses (0.029, 0.057, 0.143 and 0.358 μM) of fluorescent conjugated ligands (FVIII-FITC, BDD-FVIII-FITC) obtained in Example 2 in X-VIVO medium for 0, 15, 60 and 120 min at 4° C. or at 37° C. After the incubation period, the cells were washed with cold PBS and analyzed by flow cytometry. To investigate the involvement of receptors in the internalization, the cells were preincubated for 30 min at 37° C. with […] and 1 mg/ml of mannan (Sigma-Aldrich, Saint Quentin Fallavier, France) before the addition of ligands conjugated to fluorescein. In addition to FVIII-FITC and FVIII-BDD-FITC, human α2-macroglobulin-MA (α2M) conjugated to FITC from Biomac (Leipzig, Germany), dextran-FITC (molecular weight 40,000) from Molecular Probes (Leiden, The Netherlands) and Lucifer yellow (LY-CH) from Sigma-Aldrich were used. The investigation of the internalization of FVIII was also carried out in the presence of 20 μg/ml of anti-mannose receptor monoclonal antibody (PAM-1, isotype IgG1) or anti-DC-SIGN monoclonal antibody ((AZN-D1, isotype IgG1) or mouse IgGλ,k conjugated to PE-Cy (BD Pharmingen, France). To investigate whether DC-SIGN is involved in the endocytosis of FVIII, the B lymphocyte line HD-420 transformed by wild-type EBV and transfected with DC-SIGN or not transfected was incubated with various concentrations of FVIII-FITC (0, 0.036, 0.072 and 0.143 μM) for 2 hours in RPMI 1640 medium supplemented with 10% FCS (foetal calf serum) and antibiotics. The analysis was carried out as for the DCs.

[3] = test system: D9E9 (T cell clone specific for FVIII); test: In vitro activation of FVIII-specific T cell clone D9E9 (IFN-gamma production); type: cell-based, human; conditions: antigen presented by DCs; IFNγ production; FIG. 4b
Protocol: After washing, the DCs of Example 1 were resuspended in DMEM:F12 (1:1) medium containing 10% FCS and 10,000 DCs were introduced into each well of a 96-well cell culture plate with a round base. After incubation with mannan (1 mg/ml) in each well for 30 min, the DCs were cultured with 5,000 D9E9 (T cell clone specific for FVIII) in DMEM:F12 (1:1) medium containing 10% FCS and 20 U/ml of rhIL-2 with various doses of whole FVIII or FVIII-BDD (10, 8, 6, 4, 2 μg/ml) for 20 hours at 37° C. Like the D9E9 cells, the LE2E9 and BO2C11 lines of B cells transformed by EBV were cultured in the presence of 10 μg/ml of whole FVIII or FVIII-BDD. The control conditions were maintained in the absence of FVIII, D9E9 or DCs. As a negative control, hrFIX (Benefix, Baxter) was incubated with the cells at isomolar concentrations of FVIII. The supernatants were harvested at the end of the incubation period and tested for their production of IFNγ using the human IFN-γ Duo Set (DY285, R&D Systems) in accordance with the manufacturer's instructions.

[4] = cells preincubated with 5 mM EDTA

## VWF: von Willebrand factor (Willefectin, LFB)
[1]
  inhibition of interaction of CTLD(4-7)-Fc with immobilized FVIII: 43%

## O=C(O)CN(CCN(CC(=O)O)CC(=O)O)CC(=O)O [EDTA, reference compound]
[2]; [4]
  inhibition of internalization of FVIII-BDD by immature DCs: 62.4±11.4%
  inhibition of internalization of whole FVIII by immature DCs: 58.1±11.1%

## FIX: hrFIX (Benefix, Baxter), negative control
[3]
  activation of D9E9 cells: absence of proliferation

## O=C[C@H](O)[C@@H](O)[C@@H](O)[C@H](O)CO [D-galactose, reference compound]
[2]; D-galactose, independently of presence or absence of domain B
  reduction of internalization of FVIII: did not significantly reduce

B1: RAP: receptor-associated protein of 38 kD, blocks endocytosis of ligands by LDL receptor family members such as CD91/LRP (protein, UniProt P30533 35-357, looked up)
Alpha-2-macroglobulin …: YSREKNQPKPSPKRESGEEFRMEKLNQLWEKAQRLHLPPVRLAELHADLKIQERDELAWKKLKLDGLDEDGEKEARLIRNLNVILAKYGLDGKKDARQVTSNSLSGTQEDGLDDPRLEKLWHKAKTSGKFSGEELDKLWREFLHHKEKVHEYNVLLETLSRTEEIHENVISPSDLSDIKGSVLHSRHTELKEKLRSINQGLDRLRRVSHQGYSTEAEFEEPRVIDLWDLAQSANLTDKELEAFREELKHFEAKIEKHNHYQKQLEIAHEKLRHAESVGDGERVSRSREKHALLEGRTKELGYTVKKHLQDLSGRISRARHNEL
[2]; excess of RAP
  prevention of endocytosis of FVIII by the DCs: did not allow the endocytosis of FVIII by the DCs to be prevented
[2]; excess of RAP or mannan, FIG. 2f
  inhibition of internalization of α2M: inhibited completely
